Laboratory results as given in patent US6951876B2, “Sulfamoylheteroaryl pyrazole compounds as anti-inflammatory/analgesic agents” (Pfizer, Inc., priority 1999, dated 2005).
Where a name gives a salt, the structure may show the parent alone.

SMILES | melting point
Cl.NS(=O)(=O)c1ccc(-n2nc(C(F)(F)F)c(Cl)c2-c2ccc(-c3cscn3)cc2)cn1 | 157 °C
CCc1c(C(F)(F)F)nn(-c2ccc(S(N)(=O)=O)nc2)c1-c1ccc(-c2cncs2)cc1.Cl | 169 °C
Cc1cc(-c2cc(C(F)(F)F)nn2-c2ccc(S(N)(=O)=O)cn2)ccc1-c1cscn1.Cl | 138 to 140 °C
CCc1c(-c2ccc(-c3cscn3)cc2)c(C(F)(F)F)nn1-c1ccc(S(N)(=O)=O)nc1.Cl | 141 °C
Cl.NS(=O)(=O)c1ccc(-n2nc(C(F)(F)F)c(F)c2-c2ccc(-c3cscn3)cc2)cn1 | 145 °C
NS(=O)(=O)c1ccc(-n2nc(C(F)(F)F)cc2-c2ccc(-c3cscn3)c(C(F)(F)F)c2)cn1 [Example 5, 5-{5-[4-(1,3-Thiazol-4-yl)-3-(trifluoromethyl)phenyl]-3-(trifluoromethyl)-1H-pyrazol-1-yl}-2-pyridinesulfonamide] | 114 °C
Cl.NS(=O)(=O)c1ccc(-n2nc(C(F)(F)F)cc2-c2ccc(-c3cncs3)cc2)cn1 | 138 °C
Cl.NS(=O)(=O)c1ccc(-n2nc(C(F)(F)F)cc2-c2ccc(-c3cscn3)cc2)cn1 | 121 °C
NS(=O)(=O)c1ccc(-n2nc(C(F)(F)F)cc2-c2ccc(-c3ncco3)c(Cl)c2)cn1 (as salt: hydrochloride) [Example 3, 5-[5-[3-Chloro-4-(1,3-oxazol-2-yl)phenyl]-3-(trifluoromethyl)-1H-pyrazol-1-yl]-2-pyridinesulfonamide] | 156 °C
NS(=O)(=O)c1ccc(-n2nc(C(F)(F)F)c(Cl)c2-c2ccc(-c3cncs3)c(Cl)c2)cn1 (as salt: methanesulfonate) [Example 16, 5-[4-Chloro-5-[3-chloro-4-(1,3-thiazol-5-yl)phenyl]-3-trifluoromethyl-1H-pyrazol-1-yl]-2-pyridinesulfonamide] | 191 to 193 °C
NS(=O)(=O)c1ccc(-n2nc(C(F)(F)F)cc2-c2ccc(-c3ccco3)cc2)cn1 (as salt: hydrochloride) [Example 2, 5-[5-[4-(2-Furyl)phenyl]-3-(trifluoromethyl)-1H-pyrazol-1-yl]-2-pyridinesulfonamide] | 140 to 170 °C
